{"source": "patent US11022604B2", "about": "“Dock derived compound against laminin receptor (37 LR) and uses thereof” (Purdue Research Foundation, priority 2017, dated 2021)", "key": {"[1]": {"system": "LNCaP androgen dependent metastatic prostate cancer cells", "experiment": "Cell viability screen (CCK-8), LNCaP cells", "type": "cell-based", "conditions": "Homo sapiens, CCK-8, 96 hours, read-out: IC50, inhibition of cell viability", "procedure": "FIGS. 2A-2H. Dose response curves. Does response curves for cell lines treated with 6, 10.5, 18.6, 32.4, 57.5 and 100 μM of compound (log) for 96 hours using % cell viability derived from CCK-8 absorbance readings at 450 nm (n=3, mean±SEM). A DMSO equivalent control (n=2±SEM) was also included for each cell line tested: Ea.hy.926 endothelial cells (Endo), LNCaP androgen dependent metastatic prostate cancer cells, TC2-Ras mouse prostate cancer cells, PC-3 androgen independent metastatic prostate cancer cells, and SH-SY5Y neruoblastoma cells. […]\nCell Viability Screen. […] Cell viability was measured by using the cell counting kit-8 (CCK-8, Dojindo). […] CCK-8 absorbance was measured at 450 nm using a GloMax Multimode Reader (Promega). Readings were performed the day after seeding to normalize for variations in cell seeding and after 96 hours of compound treatment. After each reading, CCK-8 media was removed and replaced with media containing compound as described previously. […] As described previously, an initial baseline CCK-8 reading was performed at 24 hours post seeding to correct for variations in seeding density. First, 450 nm values for each well were subtracted from media only readings to correct for baseline absorbance. Then, the 96 hour readings were normalized to their respective 24 hour readings to control for seeding variation. […]"}, "[2]": {"system": "THP-1 human monocytes", "experiment": "Inflammatory gene expression (qPCR) in LPS-stimulated THP-1 macrophages", "type": "cell-based", "procedure": "FIG. 17—Fold change in inflammatory gene expression when THP-1 monocytes are treated with Compounds of Interest. […] PL, PMA-differentiated and treated with LPS. P18, PEDF peptide. (*, p<0.05 relative to PL)\nCell Culture. THP-1 human monocytes were purchased from ATCC (Manassas, Va.) and cultured in DMEM/10% FBS/1% Anti-Anti (Gibco). The monocytes were differentiated into macrophages with 5 ng/ml […] (PMA) for 48 h and pretreated with drugs for 6 h. Lipopolysaccharide (LPS, 10 ng/ml) stimulation was performed for 1 h and cells were collected for assays. Human adipose-derived mesenchymal stromal/stem cells (ASC) were purchased from LaCell, LLC (Metairie, La.) and grown on fibronectin-coated plates in MCDB-201/DMEM/10% FBS media. RNA isolation and qPCR. RNA was isolated from cell pellets using an RNAeasy kit (Qiagen) according to manufacturers' specifications for tissue samples. 1 μg RNA was reverse transcribed using a AmfiRivert kit (Genedepot) and 2 μl used in a SYBR green quantitative PCR reaction for detecting differences in gene expression relative to beta-actin control. Luciferase Assays. THP-1 human monocytes were seeded in OptiMEM/1% anti-anti (Gibco) and transfected using Lipofectamine LTX (Invitrogen, Carlsbad, Calif.) in a 96-well format in white opaque plates. […] The samples were read in a BiotekNeo (Bindley Bioscience Center). […]"}}}
{"smiles": "O=C(c1cc(F)cc2c1OCOC2)N1CCN(C2c3ccccc3-c3ccccc32)CC1", "note": "[Compound C3, [4-(9h-fluoren-9-yl)piperazino](6-fluoro-4h-1,3-benzodioxin-8-yl)methanone]", "values": [{"measurement": "IC50", "setting": "[1]", "result": 10.3, "unit": "µM"}, {"measurement": "reduction of IL-1β expression", "setting": "[2]", "result": "~8", "unit": "fold"}]}
